“And” between values parts separate entries of the source, which are not always exact repeats. Identical values can stand only once. The source made the active and inactive calls.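 How the source made its calls: active means EC50 under a set limit in control cells lacking the mosquito receptor, marking a fluorescence artifact; inactive means the rest.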
Biological target: HEK293 Galpha15/GCaMP6s without NPYLR7, calcium fluorescence
Test: nonspecific activation in parental Galpha15/GCaMP6s cells – cell-based, HEK293 lacking NPYLR7, counter-screen for mosquito NPYLR7 agonist project, dose response (AID 1259426);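 further: potency for a rise in fluorescence over baseline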

Structure (SMILES)	EC50
NC(=O)CN1c2cccc3cccc(c23)S1(=O)=O	> 20 µM (inactive)
CCCCNC(=O)CCCCCNC(N)=O	> 20 µM (inactive)
CCC(CO)[n+]1c(C)cc(C=C2Sc3ccccc3N2Cc2ccccc2)cc1C (centres undefined)	> 20 µM (inactive)
OC=c1ccc2cccc3nc(C(F)(F)F)nc1c23	11.2 µM
COc1cc(Br)c(O)c(/C=N\n2c(C)n[nH]c2=S)c1	> 20 µM (inactive)
CCOc1ccc2nc3cc(N)ccc3c(N)c2c1	4.44 µM
C#CCN1C(=O)SC(=Cc2ccc(N3CCCCC3)o2)C1=O	2.36 µM
CCc1nn(C(C)C(=O)NC(C)CCc2ccco2)c(=O)c2cc3occc3n12 (centres undefined)	0.743 µM
CCN1CCN(c2ccc(C(=O)C=Cc3ccc(O)c(OC)c3)cc2F)CC1	11.2 µM
CC1(C)CC(c2[nH]cnc2-c2ccccc2)CCO1 (centres undefined)	> 20 µM (inactive)
NC(=S)N/N=c1\oc2cc(O)ccc2cc1-c1nc2ccccc2[nH]1	0.155 µM
COCCn1c(C)cn2c3c(=O)n(Cc4ccc(Cl)cc4)c(=O)n(C)c3nc12	> 20 µM (inactive)
CCn1c(O)c(C=Nc2c(C#N)c(C)c(C)n2C2CCCCC2)c(=O)n(CC)c1=S	1.31 µM
COCCN=Cc1cc(I)cc(I)c1O	> 20 µM (inactive)
CCOC=C(C#N)c1nc(C)cs1	2.43 µM
CCOC(=O)C1=C(C)NC(C)=C(C(=O)OCC)C1c1cc(Cl)ccc1OC(F)F	14.7 µM
COc1ccc(NCc2ccc(OC)c(Br)c2)cn1	5.12 µM
COc1ccc(/C=C2\Oc3c(ccc4c3CN(CC3CCCO3)CO4)C2=O)cc1OC (centres undefined)	4.8 µM
O=C(CNCc1ccccc1)N1CC(=O)N(c2cccc(Cl)c2)C1	> 20 µM (inactive)
CC1(C)OC2OC(C(O)c3cc(O)c4c(c3O)C(=O)c3ccccc3C4=O)C(C)(O)C2O1 (centres undefined)	1.86 µM
CCCN1CCc2c(sc3c2c(NC(CC)CO)nc2nnnn23)C1 (centres undefined)	> 20 µM (inactive)
CCOC(=O)C1=C(O)/C(=C\c2ccc(N(C)C)cc2)SC1=Nc1ccc(OC)cc1OC	> 20 µM (inactive)
O=C1/C(=C/c2cccc(Br)c2)Oc2c1ccc(O)c2CN1CCN(CCO)CC1	12.7 µM
CC(C)CN1C(=O)C(=Cc2c(N3CCN(CCO)CC3)nc3ccccn3c2=O)SC1=S	> 20 µM (inactive)
CS(=O)(=O)c1ccc(-c2cccc3c2OC(CNC(=O)c2cc[n+]([O-])cc2)C3)cc1 (centres undefined)	> 20 µM (inactive)
CCCc1ccccc1N1C(=O)CSC1c1ccc(NC(=O)CCl)cc1 (centres undefined)	> 20 µM (inactive)

Structure (SMILES)	EC50
N#CC1C(=N)SC(=N)C(C#N)C1c1cccc(F)c1 (centres undefined)	7.03 µM
CCOc1cc(/C=C(\C#N)c2nc3ncc(Br)cc3[nH]2)ccc1O	2.3 µM
NC(=NC1C2CC3CC(C2)CC1C3)Nc1ccc(I)cc1 (centres undefined)	14.1 µM
COc1ccc(N2C(=O)/C(=C\c3ccc[nH]3)N(C)C2=S)c([N+](=O)[O-])c1	> 20 µM (inactive)
CCN1CCN(Cc2c(O)cc(C)c3c2O/C(=C\c2ccco2)C3=O)CC1	9.72 µM
COc1ccc(NC(=O)C2C=CCN2)cc1NC(=O)c1ccco1 (centres undefined)	> 20 µM (inactive)
Nc1nc(Cl)nc2c1ncn2[C@@H]1O[C@H](COP(=O)(O)OP(=O)(O)OP(=O)(O)O)[C@H](O)C1O (some centres undefined)	> 20 µM (inactive)
CN1CCN(Cc2c(O)ccc3c2O/C(=C\c2cc4cc(Br)ccc4o2)C3=O)CC1	12.7 µM
CCOc1cc(/C=C2\C(=N)N3N=CSC3=NC2=O)cc(Br)c1OC(=O)c1ccccc1	3.04 µM
CSc1nnc2c(n1)OC(c1ccc(OC(=O)c3ccc(Br)cc3)cc1)Nc1ccccc1-2 (centres undefined)	> 20 µM (inactive)
CC(C)NCC(O)c1ccc(O)c(O)c1 (centres undefined)	< 0.039 µM
CCCCCN=C(N)NN=Cc1c[nH]c2ccc(OC)cc12	> 20 µM (inactive)
COc1ccccc1OCCCOc1ccc(Br)cc1Cl	> 20 µM (inactive)
Nc1ccc2c3c(cccc13)C(=O)NC2=O	2.07 µM
N#CC1C(=N)Oc2cc(N)ccc2C1c1c(Cl)cccc1Cl (centres undefined)	> 20 µM (inactive)
CCN(CC)c1ccc(/C=C2\SC(=S)N(CC(=O)O)C2=O)c(O)c1	1.15 µM
CCN1C(=Cc2cc(C)[n+](C3CCCCC3)c(C)c2)Sc2ccccc21	> 20 µM (inactive)
CCN(CC)CC[n+]1c(C)cc(C=C2Sc3ccccc3N2C)cc1C	> 20 µM (inactive)
CS(=O)(=O)Nc1nc2n(n1)C(c1ccccc1)CC(c1ccc(Cl)cc1)=N2 (centres undefined)	> 20 µM (inactive)
O=C1c2cccc3c(Nc4ccccc4)ccc(c23)C(=O)N1c1ccccc1	5.39 µM
O=C(CC(c1cccc([N+](=O)[O-])c1)c1c[nH]c2ccccc12)NC1CC1 (centres undefined)	> 20 µM (inactive)
Cn1c(C(C#N)=Cc2c(F)c(F)c(F)c(F)c2F)nc2ccccc21	< 0.039 µM
CN(C)c1ccc(/C=C2/SC(=S)N(CC(=O)O)C2=O)cc1Br	0.346 µM
CC(C)OC(=O)C(C(=O)C(F)(F)F)c1cc(NS(=O)(=O)c2ccc(Cl)cc2)ccc1O (centres undefined)	> 20 µM (inactive)
O=C(c1nccc2ccccc12)N1CCN(CC2CCCC2)CC1	> 20 µM (inactive)
COc1cc(/C=C2\SC(=S)N(C(CC(=O)O)C(=O)O)C2=O)ccc1O (centres undefined)	9.71 µM

Structure (SMILES)	EC50
CSCCC(C(=O)O)N1C(=O)/C(=C/c2ccc(O)cc2)SC1=S (centres undefined)	6.49 µM
Nc1ccc(Oc2cc(N)cc(Oc3ccccc3)c2)cc1	18.3 µM
CCCS(=O)(=O)N1CCN=C1SCc1ccccc1C	> 20 µM (inactive)
N#CC(C#N)=Cc1ccc(O)c(O)c1	> 20 µM (inactive)
Cc1nc2ncccc2cc1C(=O)N1CCC2(CCNC(=O)CC2)CC1	> 20 µM (inactive)
Nc1ccc(-c2nc3cc(N)cc(Cl)c3o2)cc1	17 µM
CCCCN(CC(=O)Nc1c(-c2ccccc2)c(C)nn1-c1ccccc1C)S(=O)(=O)c1ccc(F)cc1	> 20 µM (inactive)
CCCc1nn2c(N)c(C=C3C=C(Cl)C(=O)C(Cl)=C3)c(=O)nc2s1	> 20 µM (inactive)
O=c1oc2cc(O)ccc2cc1-c1nc2ccccc2s1	0.0533 µM
Cc1oc(-c2cccc(NC(=O)CC(C)C)c2)nc1CNC(=O)Cc1cc(F)cc(F)c1	> 20 µM (inactive)
CCCC[n+]1c(C)cc(C=C2Sc3ccccc3N2CC)cc1C	18.7 µM
C[C@@H]1OC(O[C@H]2[C@H](OC(=O)[C@]34CCC(C)(C)CC3C3=CCC5[C@@]6(C)CC[C@H](OC7O[C@@H](C)[C@H](O[C@@H]8OC[C@@H](O)[C@H](O)[C@H]8O)[C@@H](O)[C@H]7O)C(C)(C)C6CC[C@@]5(C)[C@]3(C)CC4O)OC[C@H](O)[C@H]2O)[C@H](O)[C@H](O)[C@H]1O[C@@H]1O[C@H](CO)[C@@H](O)[C@H](O)[C@H]1O (some centres undefined)	10.3 µM
O=C(NCCSc1ccc(Cl)cc1)c1ccc2c(=O)n3c(nc2c1)CCC3	> 20 µM (inactive)
N#CC(C#N)=C1C=C2C=C(N3CCN(Cc4ccccc4)CC3)CCC2CC1 (centres undefined)	> 20 µM (inactive)
O=C1OC(c2ccc(Cl)c([N+](=O)[O-])c2)=N/C1=C\c1cc2cc3c4c(c2oc1=O)CCCN4CCC3	< 0.039 µM
N#CC1C(=N)Oc2cc(O)ccc2C1c1ccccc1I (centres undefined)	7.42 µM
CCN1CCc2c(sc(NC(=O)C3=COCCO3)c2-c2nc3ccccc3s2)C1	0.945 µM
C(/C=C/CC=Nc1ccccc1)=Nc1ccccc1	14.5 µM
N#C/C(=C\c1ccc(O)c(O)c1)C(=O)NCc1ccccc1	> 20 µM (inactive)
COc1cc(C=C(C#N)S(=O)(=O)c2cc(Br)ccc2Br)ccc1O	19.5 µM
CCN(CC)C1=CC2=CC(=C(C#N)C#N)CCC2CC1 (centres undefined)	< 0.039 µM
N#Cc1cc2cc(Cl)cc(Cl)c2oc1=O	1.94 µM
Cc1c(NC(=O)COC(=O)C(C#N)=Cc2ccc(N(C)C)cc2)c(=O)n(-c2ccccc2)n1C	> 20 µM (inactive)
O=C(O)CCn1c(O)c(C=C2C=Nc3ccccc32)sc1=S	12 µM
Cc1ccc(Cl)c(Oc2cc(N3CCN(C(=O)c4ccc(Cl)c(Cl)c4)CC3)ncn2)c1	> 20 µM (inactive)
CC1C(=O)c2cccc3c(=O)n(-c4ccccc4)c(O)c(c23)C1=O (centres undefined)	> 20 µM (inactive)

Structure (SMILES)	EC50
CN1CCc2c(sc(NC(=O)Cc3ccccc3)c2-c2nc3ccccc3s2)C1	> 20 µM (inactive)
O=c1cc(C(F)(F)F)c2ccc(O)cc2o1	6.31 µM
CC(C)(C)c1cnc(CSc2cnc(NC(=O)C3CCNCC3)s2)o1	> 20 µM (inactive)
COc1ccc(-c2cnn(CCC(N)=O)c2)c(C)c1	> 20 µM (inactive)
Clc1ccc(-c2noc3c2CN(CCn2cc(Cl)cn2)CC3)cc1	15.4 µM
CCNc1ccc(OC)nc1	> 20 µM (inactive)
CC(=O)NCCc1ccc(O)c(O)c1	0.0722 µM
CNCC(O)c1ccc(O)c(O)c1 (centres undefined)	0.327 µM
CC(=O)[C@]1(O)Cc2c(O)c3c(c(O)c2[C@@H](O[C@H]2C[C@H](N)[C@H](O)[C@H](C)O2)C1)C(=O)c1ccccc1C3=O	4.29 µM
COc1cccc(CN2C(=O)c3cccc(N)c3C2=O)c1	> 20 µM (inactive)
CCN(CC)c1ccc2cc(C(N)=O)/c(=N\NC(N)=S)oc2c1	< 0.039 µM
COc1cccc(/C=C2\Oc3c(ccc4c3CN(Cc3ccncc3)CO4)C2=O)c1	10.5 µM
Cc1cc(O)c(CN2CCCCC2)c2c1C(=O)/C(=C/c1cc3ccccc3o1)O2	18.5 µM
Nc1ncnc2c1ncn2[C@@H]1O[C@H](CO)[C@@H](O)[C@H]1O	< 0.039 µM
CNC(=O)NC(=O)CCN1CC(c2ccccc2Cl)c2c([nH]c3ccccc23)C1C (centres undefined)	> 20 µM (inactive)
O=C1SC(Nc2ccc(Br)cc2)C(=O)N1c1ccccc1 (centres undefined)	17.9 µM
Cc1cccc(N2C(=O)NC(=O)/C(=C/c3cn(C)c4ccccc34)C2=O)c1	> 20 µM (inactive)
O=C(CC1SC(=O)NC1=O)Oc1ccc(/C=C2\SC(=O)NC2=S)cc1 (centres undefined)	7.71 µM
CC(C(=O)O)n1c(O)c(C=C2C=Nc3ccccc32)sc1=S (centres undefined)	6.92 µM
CC(=O)OC(C)C[N+](C)(C)C (centres undefined)	> 20 µM (inactive)
CC1C(=O)N(c2cccc(F)c2)CCN1C(=O)C1CC1 (centres undefined)	> 20 µM (inactive)
O=c1[nH]c(CCl)nc2sc3c(c12)CCN(Cc1ccccc1)C3	> 20 µM (inactive)
Cc1cc(C=C2Sc3ccccc3N2C)cc(C)[n+]1-c1ccccc1	1.51 µM
COCCCNCc1c(-c2ccc(F)cc2)noc1N1CCOCC1	> 20 µM (inactive)
Cc1ccc(C(=O)C=Cc2ccc(N(C)C)cc2)o1	< 0.039 µM
CCN(CC)CCCC(C)Nc1c2ccc(Cl)cc2nc2ccc(OC)cc12 (centres undefined)	4.89 µM and 1.41 µM

Source: PubChem BioAssay AID1259426 (Fisher Drug Discovery Resource Center, 2018)
